The text below walks through data of patent publication US10149839B2, “Chemical compounds” (AstraZeneca AB, priority 2016, dated 2018).

A short description of data set [1]: Thermodynamic solubility (shake flask). In kind it is physicochemical. As to conditions: aqueous phosphate buffer, 25 °C, pH 7.4, aqueous buffer, thermodynamic from solid, aqueous phosphate buffer pH 7.4, 24 hours.
The nature of data set [2]: Human plasma protein binding (equilibrium dialysis). The class given is in vitro ADME. The settings on record: dialysis 18 hours. Background: In equilibrium dialysis only unbound substance equilibrates across the membrane.
The nature of data set [3]: physchem. The settings on record: 1-octanol/aqueous buffer, pH 7.4.
In data set [4] the target is Estrogen Receptor (ERα) in MCF-7 cells (Homo sapiens (Human), UniProt P03372). Kind of data set: MCF-7 ER down-regulation assay (immuno-fluorescence). The settings on record: for IC50: 18-22 hours incubation; for % downregulation: shown in brackets where not >90%. In kind it is cell-based.
Estrogen Receptor (ERα) in MCF-7 cells, sequence (P03372 whole entry): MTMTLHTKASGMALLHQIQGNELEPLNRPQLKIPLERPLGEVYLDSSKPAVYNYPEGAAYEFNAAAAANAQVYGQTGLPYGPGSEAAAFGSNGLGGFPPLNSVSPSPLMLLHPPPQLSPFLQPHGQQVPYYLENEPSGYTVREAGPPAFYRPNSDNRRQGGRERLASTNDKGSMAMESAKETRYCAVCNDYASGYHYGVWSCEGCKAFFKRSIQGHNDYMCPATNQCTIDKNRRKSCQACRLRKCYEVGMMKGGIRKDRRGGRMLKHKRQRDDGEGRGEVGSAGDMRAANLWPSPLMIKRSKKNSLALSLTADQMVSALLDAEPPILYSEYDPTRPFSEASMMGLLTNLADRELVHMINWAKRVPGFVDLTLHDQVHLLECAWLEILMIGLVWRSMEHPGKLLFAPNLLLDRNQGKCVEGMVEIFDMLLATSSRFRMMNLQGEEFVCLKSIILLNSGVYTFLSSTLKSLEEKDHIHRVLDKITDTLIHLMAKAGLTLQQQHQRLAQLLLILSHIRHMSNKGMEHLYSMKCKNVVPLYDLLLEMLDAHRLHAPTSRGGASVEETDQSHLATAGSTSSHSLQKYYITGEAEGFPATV

The structures appear in SMILES notation. Values after ≈ are worked out from the molar mass of the structure shown.

The solubility is how much of the substance goes into solution per volume. For `COc1cc(OCCNCCCF)ccc1[C@@H]1c2[nH]c3ccccc3c2C[C@@H](C)N1CC(F)F` [Example 43, N-(2-(4-((1R,3R)-2-(2,2-Difluoroethyl)-3-methyl-2,3,4,9-tetrahydro-1H-pyrido[3,4-b]indol-1-yl)-3-methoxyphenoxy)ethyl)-3-fluoropropan-1-amine], in data set [1], the solubility at 24 h came out at 163 µM (≈ 77.5 µg/mL).
One may read the logD as lipophilicity at a set pH, counting ionised and neutral species. A high value points to higher lipophilicity. Consider `C[C@@H]1Cc2c([nH]c3ccccc23)[C@@H](c2c(F)cc(OCCNCCCF)cc2F)N1CC(C)(F)F` [Example 12, N-(2-(4-((1R,3R)-2-(2,2-difluoropropyl)-3-methyl-2,3,4,9-tetrahydro-1H-pyrido[3,4-b]indol-1-yl)-3,5-difluorophenoxy)ethyl)-3-fluoropropan-1-amine], for which the solubility at 24 h in data set [1] amounted to 12 µM (≈ 5.95 µg/mL). The “Human plasma protein binding (% free)” value in data set [2] was determined as 0.61 % free. For the same compound, the pH-dependent lipophilicity (logD) in data set [3] stood at 4.1.
`C[C@@H]1Cc2c([nH]c3ccccc23)[C@@H](c2c(F)cc(OCCNCCCF)cc2F)N1CC1(CF)COC1` [Example 72, N-(2-(3,5-difluoro-4-((1R,3R)-2-((3-(fluoromethyl)oxetan-3-yl)methyl)-3-methyl-2,3,4,9-tetrahydro-1H-pyrido[3,4-b]indol-1-yl)phenoxy)ethyl)-3-fluoropropan-1-amine]: the solubility at 24 h in data set [1] came to 96 µM (≈ 49.9 µg/mL). Also, the logD in data set [3] amounted to 3.4.
Usually IC50 stands for the concentration at which inhibition is half-maximal. Higher therefore signals lower potency. In turn, `COc1nc(NCCNCCCF)ccc1[C@@H]1c2[nH]c3ccccc3c2C[C@@H](C)N1CC(F)F` [Example 76, N1-(5-((1R,3R)-2-(2,2-difluoroethyl)-3-methyl-2,3,4,9-tetrahydro-1H-pyrido[3,4-b]indol-1-yl)-6-methoxypyridin-2-yl)-N2-(3-fluoropropyl)ethane-1,2-diamine] gave an IC50 in data set [4] of 0.32 nM. This compound displayed a solubility at 24 h in data set [1] of 335 µM (≈ 159 µg/mL). Also, in data set [3], the logD amounted to 3.
Taken in the same sequence, the figures for `COc1cc(NCCNCCCF)ncc1[C@@H]1c2[nH]c3ccccc3c2C[C@@H](C)N1CC(F)F` [Example 67, N1-(5-((1R,3R)-2-(2,2-difluoroethyl)-3-methyl-2,3,4,9-tetrahydro-1H-pyrido[3,4-b]indol-1-yl)-4-methoxypyridin-2-yl)-N2-(3-fluoropropyl)ethane-1,2-diamine] were 0.87 nM, more than 1000 µM and 2.5.
`C[C@@H]1Cc2c([nH]c3ccccc23)[C@@H](c2ccc(OCCNCCCF)cc2F)N1CC1(F)COC1` [Example 22, 3-fluoro-N-(2-(3-fluoro-4-((1R,3R)-2-((3-fluorooxetan-3-yl)methyl)-3-methyl-2,3,4,9-tetrahydro-1H-pyrido[3,4-b]indol-1-yl)phenoxy)ethyl)propan-1-amine] registered a solubility at 24 h in data set [1] of 197 µM (≈ 96.1 µg/mL). Besides, in data set [2], the “Human plasma protein binding (% free)” value came to 6.1 % free. This compound showed a logD in data set [3] of 3.
`C[C@@H]1Cc2c([nH]c3ccccc23)[C@@H](c2ccc(OCCNCCCF)cc2)N1CC1(F)COC1` [Example 24, 3-fluoro-N-(2-(4-((1R,3R)-2-((3-fluorooxetan-3-yl)methyl)-3-methyl-2,3,4,9-tetrahydro-1H-pyrido[3,4-b]indol-1-yl)phenoxy)ethyl)propan-1-amine] registered a solubility at 24 h in data set [1] of 370 µM (≈ 174 µg/mL).
Take `COc1cc(OCCNCCCF)ccc1[C@@H]1c2[nH]c3ccccc3c2C[C@@H](C)N1CC(F)(F)CO` [Example 58, 2,2-difluoro-3-((1R,3R)-1-(4-(2-((3-fluoropropyl)amino)ethoxy)-2-methoxyphenyl)-3-methyl-1,3,4,9-tetrahydro-2H-pyrido[3,4-b]indol-2-yl)propan-1-ol]: in data set [1], the solubility at 24 h turned out to be 418 µM (≈ 211 µg/mL).
In turn, `COCC(C)(F)CN1[C@H](c2c(F)cc(OCCNCCCF)cc2F)c2[nH]c3ccccc3c2C[C@H]1C` (stereo partly drawn) [Example 50, N-(2-(3,5-difluoro-4-((1R,3R)-2-(2-fluoro-3-methoxy-2-methylpropyl)-3-methyl-2,3,4,9-tetrahydro-1H-pyrido[3,4-b]indol-1-yl)phenoxy)ethyl)-3-fluoropropan-1-amine] returned a solubility at 24 h in data set [1] of 47 µM (≈ 24.5 µg/mL). Further, the “Human plasma protein binding (% free)” value in data set [2] was determined as 0.61 % free. The compound further registered a logD in data set [3] of 3.9.
Regarding `C[C@@H]1Cc2c([nH]c3ccccc23)[C@@H](c2ccc(OCCNCCCF)cc2F)N1CC(C)(F)F` [Example 55, N-(2-(4-((1R,3R)-2-(2,2-difluoropropyl)-3-methyl-2,3,4,9-tetrahydro-1H-pyrido[3,4-b]indol-1-yl)-3-fluorophenoxy)ethyl)-3-fluoropropan-1-amine], in data set [4], inhibition was half-maximal at 0.2 nM (IC50) and the “% downregulation” value was “(89%)”. The same compound showed a solubility at 24 h in data set [1] of 32 µM (≈ 15.3 µg/mL). Further, in data set [3], the logD came to 4.1.
`C[C@@H]1Cc2c([nH]c3ccccc23)[C@@H](c2ccc(OCCNCCCF)cc2)N1CC1(F)CC1` [Example 23, 3-fluoro-N-(2-(4-((1R,3R)-2-((1-fluorocyclopropyl)methyl)-3-methyl-2,3,4,9-tetrahydro-1H-pyrido[3,4-b]indol-1-yl)phenoxy)ethyl)propan-1-amine] had a solubility at 24 h in data set [1] of 122 µM (≈ 55.3 µg/mL). For the same compound, the “Human plasma protein binding (% free)” value in data set [2] was 1.7 % free. The compound also yielded a logD in data set [3] of 3.3.
Regarding `COc1cc(NCCNCCCF)ncc1[C@@H]1c2[nH]c3ccccc3c2C[C@@H](C)N1CC(F)(F)CO` [Example 65, 2,2-difluoro-3-((1R,3R)-1-(6-((2-((3-fluoropropyl)amino)ethyl)amino)-4-methoxypyridin-3-yl)-3-methyl-1,3,4,9-tetrahydro-2H-pyrido[3,4-b]indol-2-yl)propan-1-ol], the solubility at 24 h in data set [1] was 911 µM (≈ 461 µg/mL). For the same compound, in data set [2], the “Human plasma protein binding (% free)” value is listed as 14 % free. In data set [3], this compound showed a logD of 2.1.
The compound `C[C@@H]1Cc2c([nH]c3ccccc23)[C@@H](c2c(F)cc(OCCNCCCF)cc2F)N1CC(F)F` [Example 13, N-(2-(4-((1R,3R)-2-(2,2-difluoroethyl)-3-methyl-2,3,4,9-tetrahydro-1H-pyrido[3,4-b]indol-1-yl)-3,5-difluorophenoxy)ethyl)-3-fluoropropan-1-amine] registered a solubility at 24 h in data set [1] of 150 µM (≈ 72.2 µg/mL). Besides, in data set [2], the “Human plasma protein binding (% free)” value turned out to be 1.6 % free. The same compound registered a logD in data set [3] of 3.4.
In the case of `C[C@@H]1Cc2c([nH]c3ccccc23)[C@@H](c2ccc(OCCNCCCF)cc2C#N)N1CC1(F)CC1` [Example 29, 2-((1R,3R)-2-((1-fluorocyclopropyl)methyl)-3-methyl-2,3,4,9-tetrahydro-1H-pyrido[3,4-b]indol-1-yl)-5-(2-((3-fluoropropyl)amino)ethoxy)benzonitrile], in data set [4], the IC50 was found to be 19 nM and the “% downregulation” value was “(57%)”.
Take `COc1cc(NCCNCCCF)ncc1[C@@H]1c2[nH]c3ccccc3c2C[C@@H](C)N1CC(C)(F)F` [Example 68, N1-(5-((1R,3R)-2-(2,2-difluoropropyl)-3-methyl-2,3,4,9-tetrahydro-1H-pyrido[3,4-b]indol-1-yl)-4-methoxypyridin-2-yl)-N2-(3-fluoropropyl)ethane-1,2-diamine]: the midpoint of inhibition in data set [4], the IC50, lay at 0.33 nM. In data set [1], the solubility at 24 h is 438 µM (≈ 214 µg/mL). The same compound registered a logD in data set [3] of 3.1.
Turning to `COc1nc(NCCNCCCF)ccc1[C@@H]1c2[nH]c3ccccc3c2C[C@@H](C)N1CC(C)(F)F` [Example 78, N1-(5-((1R,3R)-2-(2,2-difluoropropyl)-3-methyl-2,3,4,9-tetrahydro-1H-pyrido[3,4-b]indol-1-yl)-6-methoxypyridin-2-yl)-N2-(3-fluoropropyl)ethane-1,2-diamine], in data set [4], the concentration for half-maximal inhibition (IC50) was 0.21 nM. This compound also gave a solubility at 24 h in data set [1] of 192 µM (≈ 94 µg/mL). In addition, the logD in data set [3] worked out at 4.
